According to US8338565B2, “Macrocyclic compounds for inhibition of tumor necrosis factor alpha” (Ensemble Therapeutics Corporation, priority 2008, dated 2012):
Read-outs that look alike come from different tables or passages of the source. Numbered stars: 1 amine (or outer) side, 2 acyl side, 3 side chain; on linkers, the order of the positions; unused ones are H or OH. Bridge positions count the residues as written; N and C are the ends. Square brackets hold non-standard residues; d marks the D form. Peptide text beside a SMILES is read from it. * marks the point of attachment. Tartaroyl(2R,3R-(OAc)2) = CC(=O)O[C@@H](C(=O)[*:1])[C@@H](OC(C)=O)C(=O)[*:2]; Phe(4-(2-MeO-Ph)) = COc1ccccc1-c1ccc(C[C@H](N)C(=O)O)cc1; dAla(benzothien-2-yl) = N[C@H](Cc1cc2ccccc2s1)C(=O)O; Phe(4-CF3) = N[C@@H](Cc1ccc(C(F)(F)F)cc1)C(=O)O; Phe(2,4-Cl2) = N[C@@H](Cc1ccc(Cl)cc1Cl)C(=O)O; Bip = N[C@@H](Cc1ccc(-c2ccccc2)cc1)C(=O)O; dBip = N[C@H](Cc1ccc(-c2ccccc2)cc1)C(=O)O; dPhe(4-NH2) = Nc1ccc(C[C@@H](N)C(=O)O)cc1; dPhe(2-CN) = N#Cc1ccccc1C[C@@H](N)C(=O)O; Phe(4-NH2) = Nc1ccc(C[C@H](N)C(=O)O)cc1; d(hPhe) = N[C@H](CCc1ccccc1)C(=O)O; hPhe = N[C@@H](CCc1ccccc1)C(=O)O; 2Thi = N[C@@H](Cc1cccs1)C(=O)O; Cha = N[C@@H](CC1CCCCC1)C(=O)O; d2Thi = N[C@H](Cc1cccs1)C(=O)O; Suc = O=C(CCC(=O)[*:2])[*:1]; Nphe = O=C(O)CNCc1ccccc1; Bn = c1ccc(C*)cc1

Target: T1, TNFα / TNFα receptor (TNFα R1/Fc) (Homo sapiens, UniProt P01375)
T1 construct: purchased R&D Systems
Assay: Inhibition of binding of TNFα to the TNFα receptor (plate ELISA competition)
Details: Table 2
Summary of the method: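 Compound dilutions were preincubated 30 min at RT with 8.33 nM TNFα R1/Fc in PBST with 2% DMSO, then added to wells coated with 15 nM TNFα for 30 min. Bound receptor was detected with HRP anti-human Fc and TMB, read as A450.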

[1] = read-out: Activity (IC50, inhibition of TNFα binding to TNFα R1/Fc)

T1 sequence (P01375 77-233 limits assumed, species assumed): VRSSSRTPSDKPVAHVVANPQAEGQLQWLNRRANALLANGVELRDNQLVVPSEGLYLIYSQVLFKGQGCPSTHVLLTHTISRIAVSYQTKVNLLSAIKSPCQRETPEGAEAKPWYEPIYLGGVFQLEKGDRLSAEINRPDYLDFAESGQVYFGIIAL

Row | Compound | IC50 [1] [µM] | IC50 (Activity (IC50, inhibition of TNFα binding to TNFα R1/Fc)) [µM]
1 | O=C(O)[C@H](Cc1ccccc1)NC(=O)[C@H]1Cc2ccc(cc2)NC(=O)[C@H](O)[C@@H](O)C(=O)N[C@@H](Cc2cccs2)C(=O)N[C@H](Cc2ccc(-c3ccccc3)cc2)C(=O)N[C@@H](CCc2ccccc2)C(=O)N1 [Compound 432] | < 10 | –
2 | O=C1COc2ccc(cc2)C[C@@H](C(=O)O)NC(=O)[C@@H](CCc2ccccc2)NC(=O)[C@H](Cc2ccc(-c3ccccc3)cc2)NC(=O)[C@@H](Cc2cccc(C(F)(F)F)c2)N1 [Compound 520] | < 10 | –
3 | CC(=O)O[C@H]1C(=O)Nc2ccc(cc2)C[C@@H](C(=O)N[C@@H](Cc2ccccc2)C(=O)O)NC(=O)[C@H](CCc2ccccc2)NC(=O)[C@@H](Cc2ccc(-c3ccccc3)cc2)NC(=O)[C@H](Cc2cccs2)NC(=O)[C@@H]1OC(C)=O [Compound 412] ([2Thi][dBip][hPhe][Phe(4-NH2)]F-OH; linker N-4 via Tartaroyl(2R,3R-(OAc)2)) | < 10 | –
4 | O=C(O)[C@H](Cc1ccccc1)NC(=O)[C@H]1Cc2ccc(cc2)NC(=O)[C@H](O)[C@@H](O)C(=O)N[C@H](Cc2cccs2)C(=O)N[C@@H](Cc2ccc(Br)cc2)C(=O)N[C@H](Cc2ccccc2)C(=O)N1 [Compound 431] | > 100 | –
5 | O=C1COc2ccc(cc2)C[C@@H](C(=O)O)NC(=O)[C@@H](CCc2ccccc2)NC(=O)[C@H](Cc2ccc(Cl)cc2Cl)NC(=O)[C@@H](Cc2cccs2)N1 [Compound 147] | 30 to 100 | –
6 | O=C1CCC(=O)N[C@@H](Cc2cccs2)C(=O)N[C@@H](Cc2ccc(-c3ccccc3)cc2)C(=O)N[C@@H](Cc2ccccc2)C(=O)N[C@@H](C(=O)O)Cc2ccc(cc2)N1 [Compound 502] ([2Thi][Bip]F[dPhe(4-NH2)]-OH; linker N-4 via Suc) | > 100 | –
7 | O=C(O)CN(Cc1ccccc1)C(=O)[C@@H]1Cc2ccc(cc2)NC(=O)CCC(=O)N[C@H](CCc2ccccc2)C(=O)N[C@@H](Cc2ccc(-c3ccccc3)cc2)C(=O)N[C@H](Cc2ccccc2)C(=O)N1 [Compound 504] ([d(hPhe)][Bip][dF][Phe(4-NH2)][Nphe]-OH; linker N-4 via Suc) | < 10 | –
8 | O=C1CCC(=O)N[C@H](Cc2ccccc2)C(=O)N[C@@H](Cc2ccc(-c3ccccc3)cc2)C(=O)N[C@H](CCc2ccccc2)C(=O)N[C@H](C(=O)O)Cc2ccc(cc2)N1 [Compound 454] ([dF][Bip][d(hPhe)][Phe(4-NH2)]-OH; linker N-4 via Suc) | 10 to 30 | –
9 | O=C1N[C@H](Cc2ccccc2)C(=O)N[C@@H](C(=O)O)Cc2ccc(cc2)NC(=O)[C@H](O)[C@@H](O)C(=O)N[C@H](Cc2cccs2)C(=O)N[C@H]1Cc1ccc(Br)cc1 [Compound 242] | 30 to 100 | –
10 | COc1ccccc1-c1ccc(C[C@@H]2NC(=O)[C@@H](CCc3ccccc3)NC(=O)CCC(=O)Nc3ccc(cc3)C[C@@H](C(=O)O)NC(=O)[C@@H](Cc3ccccc3)NC2=O)cc1 [Compound 167] ([d(hPhe)][Phe(4-(2-MeO-Ph))][dF][Phe(4-NH2)]-OH; linker N-4 via Suc) | > 100 | –
11 | O=C1CCNc2ccc(cc2)C[C@@H](C(=O)O)NC(=O)[C@@H](Cc2ccccc2)NC(=O)[C@H](Cc2ccc(-c3ccccc3)cc2)NC(=O)[C@@H](Cc2cccs2)N1 [Compound 6] | > 100 | –
12 | CC(=O)NCCCC[C@@H]1NC(=O)COc2ccc(cc2)C[C@@H](C(=O)O)NC(=O)[C@H](CCc2ccccc2)NC(=O)[C@@H](Cc2ccc(-c3ccccc3)cc2)NC1=O [Compound 508] | < 10 | –
13 | O=C1CCC(=O)N[C@H](COCc2ccccc2)C(=O)N[C@@H](Cc2ccc(C(F)(F)F)cc2)C(=O)N[C@H](Cc2ccccc2)C(=O)N[C@H](C(=O)O)Cc2ccc(cc2)N1 [Compound 137] ([dS](Bn)[Phe(4-CF3)][dF][Phe(4-NH2)]-OH; linker N-4 via Suc) | 30 to 100 | –
14 | O=C1COc2ccc(cc2)C[C@@H](C(=O)O)NC(=O)[C@H](CCc2ccccc2)NC(=O)[C@@H](Cc2ccc(-c3ccccc3)cc2)NC(=O)[C@H](CCc2ccccc2)N1 [Compound 513] | < 10 | –
15 | CC(C)[C@H](NC(=O)[C@@H]1Cc2ccc(cc2)OCC(=O)N[C@@H](Cc2cccs2)C(=O)N[C@H](Cc2ccc(-c3ccccc3)cc2)C(=O)N[C@@H](CCc2ccccc2)C(=O)N1)C(=O)O [Compound 487] | 10 to 30 | –
16 | O=C1COc2ccc(cc2)C[C@@H](C(=O)N[C@@H](CCc2ccccc2)C(=O)O)NC(=O)[C@H](CCc2ccccc2)NC(=O)[C@@H](Cc2ccc(-c3ccccc3)cc2)NC(=O)[C@H](Cc2ccc(-c3ccncc3)cc2)N1 [Compound 623] | < 10 | –
17 | O=C1COc2ccc(cc2)C[C@@H](C(=O)N2CCC[C@@H]2C(=O)O)NC(=O)[C@@H](CCc2ccccc2)NC(=O)[C@H](Cc2ccc(-c3ccccc3)cc2)NC(=O)[C@@H](Cc2cccs2)N1 [Compound 303] | – | 10 to 30
18 | N#Cc1ccccc1C[C@H]1NC(=O)CCC(=O)Nc2ccc(cc2)C[C@@H](C(=O)O)NC(=O)[C@@H](Cc2ccccc2)NC(=O)[C@H](Cc2ccc(C(F)(F)F)cc2)NC1=O [Compound 129] ([dPhe(2-CN)][Phe(4-CF3)][dF][Phe(4-NH2)]-OH; linker N-4 via Suc) | 30 to 100 | –

Row | Compound | IC50 [1] [µM] | IC50 (Activity (IC50, inhibition of TNFα binding to TNFα R1/Fc)) [µM]
19 | O=C1COc2ccc(cc2)C[C@@H](C(=O)N[C@H](CCc2ccccc2)C(=O)O)NC(=O)[C@H](CCc2ccccc2)NC(=O)[C@@H](Cc2ccc(-c3ccccc3)cc2)NC(=O)[C@H](Cc2ccncc2)N1 [Compound 619] | < 10 | –
20 | O=C1COc2ccc(cc2)C[C@@H](C(=O)O)NC(=O)[C@@H](Cc2ccccc2)NC(=O)[C@H](Cc2ccc(-c3ccccc3)cc2)NC(=O)[C@@H](Cc2cccs2)N1 [Compound 8] | 30 to 100 | –
21 | O=C(O)CNC(=O)[C@@H]1Cc2ccc(cc2)OCC(=O)N[C@@H](Cc2ccc(-c3ccccc3)cc2)C(=O)N[C@H](Cc2ccc(-c3ccccc3)cc2)C(=O)N[C@@H](CCc2ccccc2)C(=O)N1 [Compound 570] | 10 to 30 | –
22 | O=C1COc2ccc(cc2)C[C@@H](C(=O)O)NC(=O)[C@H](CCc2ccccc2)NC(=O)[C@@H](Cc2ccc(-c3ccccc3)cc2)NC(=O)[C@H](Cc2ccccc2C(F)(F)F)N1 [Compound 689] | < 10 | –
23 | O=C1COc2ccc(cc2)C[C@H](C(=O)N[C@H](CCc2ccccc2)C(=O)O)NC(=O)[C@H](Cc2ccccc2F)NC(=O)[C@@H](Cc2ccc(-c3ccccc3)cc2)NC(=O)[C@H](Cc2c[nH]c3ccccc23)N1 [Compound 735] | 10 to 30 | –
24 | O=C(O)[C@@H]1Cc2ccc(cc2)NC(=O)[C@H](O)[C@@H](O)C(=O)N[C@H](Cc2cccs2)C(=O)N[C@@H](Cc2ccc(Cl)cc2Cl)C(=O)N[C@H](Cc2ccccc2)C(=O)N1 [Compound 189] | > 100 | –
25 | O=C1CCCc2cn(nn2)C[C@@H](C(=O)O)NC(=O)[C@@H](Cc2ccccc2)NC(=O)[C@H](Cc2ccc(C(F)(F)F)cc2)NC(=O)[C@@H](CCc2ccccc2)N1 [Compound 543] | > 100 | –
26 | O=C1COc2ccc(cc2)C[C@@H](C(=O)N[C@H](Cc2ccccc2)C(=O)O)NC(=O)[C@H](CCc2ccccc2)NC(=O)[C@@H](Cc2ccc(-c3ccccc3)cc2)NC(=O)[C@H](Cc2ccc(-c3ccccc3)cc2)N1 [Compound 573] | < 10 | –
27 | O=C1CCC(=O)N[C@H](Cc2cccs2)C(=O)N[C@@H](Cc2ccc(-c3ccccc3)cc2)C(=O)N[C@H](CCc2ccccc2)C(=O)N[C@H](C(=O)N[C@H](Cc2ccccc2)C(=O)O)Cc2ccc(cc2)N1 [Compound 444] ([d2Thi][Bip][d(hPhe)][Phe(4-NH2)][dF]-OH; linker N-4 via Suc) | 30 to 100 | –
28 | O=C1N[C@H](Cc2ccco2)C(=O)N[C@@H](C(=O)O)Cc2ccc(cc2)NC(=O)[C@H](O)[C@@H](O)C(=O)N[C@H](Cc2ccccc2)C(=O)N[C@H]1Cc1ccc(Br)cc1 [Compound 161] | > 100 | –
29 | O=C(O)CN1Cc2cccc(c2)CNC(=O)CCC(=O)N[C@H](Cc2cccs2)C(=O)N[C@@H](Cc2ccc(-c3ccccc3)cc2)C(=O)N[C@H](Cc2ccccc2)C1=O [Compound 7] | > 100 | –
30 | CC(=O)O[C@H]1C(=O)Nc2ccc(cc2)C[C@H](C(=O)O)NC(=O)[C@@H](CCc2ccccc2)NC(=O)[C@H](Cc2ccc(Cl)cc2Cl)NC(=O)[C@@H](Cc2cccs2)NC(=O)[C@@H]1OC(C)=O [Compound 221] ([d2Thi][Phe(2,4-Cl2)][d(hPhe)][dPhe(4-NH2)]-OH; linker N-4 via Tartaroyl(2R,3R-(OAc)2)) | 30 to 100 | –
31 | O=C1CCC(=O)N[C@@H](CC2CCCCC2)C(=O)N[C@@H](Cc2ccc(-c3ccccc3)cc2)C(=O)N[C@H](CCc2ccccc2)C(=O)N[C@H](C(=O)O)Cc2ccc(cc2)N1 [Compound 191] ([Cha][Bip][d(hPhe)][Phe(4-NH2)]-OH; linker N-4 via Suc) | < 10 | –
32 | O=C1CCC(=O)N[C@H](Cc2cccs2)C(=O)N[C@H](Cc2ccc(-c3ccccc3)cc2)C(=O)N[C@@H](Cc2ccccc2)C(=O)N[C@H](C(=O)O)Cc2ccc(cc2)N1 [Compound 496] ([d2Thi][dBip]F[Phe(4-NH2)]-OH; linker N-4 via Suc) | > 100 | –
33 | O=C1CCC(=O)N[C@H](Cc2cccs2)C(=O)N[C@@H](Cc2ccc(OCc3ccccc3)cc2)C(=O)N[C@H](Cc2ccccc2)C(=O)N[C@H](C(=O)O)Cc2ccc(cc2)N1 [Compound 92] ([d2Thi]Y(Bn)[dF][Phe(4-NH2)]-OH; linker N-4 via Suc) | 30 to 100 | –
34 | O=C(O)CCCNC(=O)[C@@H]1Cc2ccc(cc2)OCC(=O)N[C@@H](Cc2c[nH]c3ccccc23)C(=O)N[C@H](Cc2ccc(-c3ccccc3)cc2)C(=O)N[C@@H](Cc2ccccc2F)C(=O)N1 [Compound 718] | < 10 | –
35 | O=C1CCC(=O)N[C@H](Cc2cc3ccccc3s2)C(=O)N[C@@H](Cc2ccc(C(F)(F)F)cc2)C(=O)N[C@H](Cc2ccccc2)C(=O)N[C@H](C(=O)O)Cc2ccc(cc2)N1 [Compound 164] ([dAla(benzothien-2-yl)][Phe(4-CF3)][dF][Phe(4-NH2)]-OH; linker N-4 via Suc) | 30 to 100 | –
36 | O=C1COc2ccc(cc2)C[C@@H](C(=O)N[C@H](CCc2ccccc2)C(=O)O)NC(=O)[C@H](Cc2ccccc2F)NC(=O)[C@@H](Cc2ccc(-c3ccccc3)cc2)NC(=O)[C@H](Cc2c[nH]c3ccccc23)N1 [Compound 741] | < 10 | –
